In US4745102A, “Novel treatment method” (Roussel Uclaf, priority 1979, dated 1988):
“Also recorded” adds a separate entry of the source.

What was measured:
[1] = system: testicular steriodogenosis; assay: Inhibition of testicular steroidogenesis in a patient with prostate cancer, intranasal twice a day; format: in vivo, human; details: intranasal 500 μg twice a day
Text: The inhibitory activity of [D Ser (tbu)^6 des Gly NH2^10 ] […] The results are reported in the graphs of sheet 2 of the Figures.

[2] = system: testicular steroidogensis; assay: Inhibition of testicular steroidogenesis in healthy men, single intranasal dose; seric LH, FSH and steroids by radioimmunoassay; format: in vivo
Method: The inhibitory activity of [D Ser (tbu)^6 of des Gly NH2^10 ] LH-RH ethylamide (described in German application Ser. No. 2,438,350) against testicular steroidogensis in men in good health was determined on men in good health aged 30 to 40 years. The said product was administered intranasally at a dose of 500 μg in a few drops of distilled water at 8 A.M. on the third day of the test. For 2 days prior to the treatment and for 6 days after the treatment, samples of blood were taken daily at 8 A.M., 3 P.M. and 10 P.M. On the day of administration of the LH-RH agonist, blood samples were taken at 11 A.M. and 6 P.M.
The seric concentrations of LH and FSH were measured by radioimmuno-logic dosages with double antibodies and the antibodies for measuring LH and FSH were furnished by the National Pituitary Agency of N.I.H. in Bethesda, Md. The seric concentrations of steroids was measured by radioimmuno-logic dosages in which one ml of serum was extracted with ether and the steroids were separated on a LH-20 column before measuring with radioimmuno-logic dosages. The radioimmuno-logic dosage results were determined by a program derived from model II of Rodbard et al [Second Karolinska Symposium on Research Methods in Reproductive Endrocrinology, Diczfalusky Editor, Copenhague (1970), p. 79-103]. The statistical significance was determined by the "multiple level test" of Ducan-Kramer [Kramer, Biometrics, Vol 12 (1956), p. 307]. The results are shown in the graphs on sheet 1 of the FIGS. filed herewith.

[3] = system: ovarian steroidogenosis; assay: Inhibition of ovarian steroidogenesis in women, intranasal, 6 consecutive cycles; format: in vivo; details: for reduction of seric levels of progesterone as compared to the controls: typical case (sheet 3)
Method: The inhibitory activity of [D Ser (tbu)^6 des Gly NH2^10 ] LH-RH ethylamide on ovarian steroidogenosis in women was determined on 6 women aged 26 to 35 years with normal and regular menstrual cycles and without prior endocrinal or gynecological problems. The study was conducted for 6 consecutive cycles consisting of 2 pretreatment cycles, 2 treatment cycles and 2 post-treatment cycles. Two drops of a solution containing 500 μg of [D Ser (tbu)^6 des Gly NH2^10 ] LH-RH ethylamide were deposited on each nostril at 8 A.M. and 5P.M. of a day between the 4th and 9th day after the peak of LH-day 0. Daily blood samples were taken between 4 and 6 P.M. to measure seric levels of LH, FSH, progesterone and estradiol which were determined by radioimmuno-logictests with double antibodies. The antibodies to measure LH and FSH were furnished by the National Pituitory Agency of N.I.H. of Bethesda, Md.
Estradiol and progesterone were measued with highly specific antibodies developed against 7-(0-carboxymethyl)oxime of estradiol and 12-(0-carboxymethyl)-oxime of progesterone, respectively [3H] 17β-estradiol and ^125 I-progesterone-12-[0-carboxymethyl)-oxime]used as tracers. The serum was extracted with benzene and the steroids were separated with a LH-20 column before the determination. The radioimmunological results were exploited by the program derived from model II of Rodbard and Lewald as in Example 1 and the statistical significance was measured by the multiple level test of Ducan-Kramer of Example 1. The results are shown in the graphs of sheets 3 to 5 of the FIG.

## CCNC(=O)[C@@H]1CCCN1C(=O)[C@H](CCCNC(=N)N)NC(=O)[C@H](CC(C)C)NC(=O)[C@@H](COC(C)(C)C)NC(=O)[C@H](Cc1ccc(O)cc1)NC(=O)[C@H](CO)NC(=O)[C@H](Cc1c[nH]c2ccccc12)NC(=O)[C@H](Cc1c[nH]cn1)NC(=O)[C@@H]1CCC(=O)N1 [[D Ser (tbu)^6 des Gly NH2^10] LH-RH ethylamide]
[1]
  level of androgenic steroids: diminution
[2]; human, single intranasal dose 500 μg
  duration of drop of seric levels of testicular steroids (testosterone and its precursors): 3 days
[2]; human, single intranasal dose 500 μg, fourth day (until 6th day)
  level of testosterone/steroids on the fourth day after administration: returned to normal; also recorded: return to normal levels
[2]; men, intranasal 500 μg
  overall effect on testicular steroidogenesis: inhibition of testicular steroidogenesis
[3]; 12 cycles of post-treatment
  level of progesterone, cycles of pretreatment as base of 100%: 99%
[3]; 12 cycles of treatment
  level of progesterone, cycles of pretreatment as base of 100%: 46%
[3]; all results (sheet 5), cycles of treatment
  level of progesterone reduced as compared to the controls: 46%
[3]; sheet 4, post-treatment cycles
  level of seric progesterone in the 2 cycles of post-treatment: return to normal
[3]; sheet 4, treatment cycles
  level of seric progesterone in the 2 cycles of treatment: accelerated diminution
[3]; first cycle of treatment, intranasal 500 μg at 8 A.M. and 5 P.M.
  reduction of seric levels of progesterone as compared to the controls: 13%
[3]; second cycle of treatment
  reduction of seric levels of progesterone as compared to the controls: 34%
